In publication PMC5645021 (Organic letters, 2014):

How the values were obtained:
Type in all cases: cell-based
[1] = target: oncogenic mutant K-Ras (mGFP-K-RasG12 V) (Homo sapiens, UniProt P01116, G12V); experiment: K-Ras PM mislocalization; conditions: for K-Ras PM mislocalization Emax: maximum extent of mislocalization of K-Ras from the PM to the endomembrane, MDCK cells; for IC50: read-out: K-Ras PM mislocalization IC50, mGFP-K-RasG12V in intact MDCK cells
A549 versus H522 = experiment: Cytotoxicity toward K-Ras mutated versus non-mutated lung cancer cells; conditions: human lung cancer cells
SW620 = experiment: MTT cytotoxicity, SW620; conditions: read-out: MTT cytotoxicity SW620 IC50; colon cancer cell line SW620
SW620 Ad300 = experiment: MTT cytotoxicity, SW620 Ad300; conditions: for FR (fold resistance): IC50 ratio for SW620 Ad300 versus SW620; for IC50: read-out: MTT cytotoxicity SW620 Ad300 IC50, P-gp overexpressing daughter cell line SW620 Ad300; for FR (fold resistance), control study: SW620 Ad300 versus SW620

Sequence of oncogenic mutant K-Ras (mGFP-K-RasG12 V) (P01116 1-188 isoform P01116-2 G12V): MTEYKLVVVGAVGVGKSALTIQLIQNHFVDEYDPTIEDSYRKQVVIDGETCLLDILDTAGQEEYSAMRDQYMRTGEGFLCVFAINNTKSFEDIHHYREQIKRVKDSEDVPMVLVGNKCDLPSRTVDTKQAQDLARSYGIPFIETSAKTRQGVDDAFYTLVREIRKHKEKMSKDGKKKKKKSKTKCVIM

Q: How did the “K-Ras PM mislocalization Emax” value [1] turn out when `CCCCCC[C@H]1C(=O)O[C@H](C)[C@H](NC(=O)c2cccc(NC=O)c2O)C(=O)O[C@@H](C)[C@@H]1OC(=O)C(C)C` [compound 5, antimycin A2a, reference compound] was run?
A: The value was 0.78 ± 0.02.

Q: What about the IC50 [1] of the same molecule?
A: Its IC50 is 7.9 ± 0.3 nM.

Q: And the “increased cytotoxicity toward K-Ras mutated A549 versus non-mutated H522” value (A549 versus H522)?
A: The value was greater than 26 fold.

Q: What about the IC50 (SW620) of the same molecule?
A: Its IC50 is 150 nM.

Q: And the “FR (fold resistance)” value (SW620 Ad300)?
A: Its value is 2.1.

Q: And the IC50 (SW620 Ad300)?
A: Its IC50 is 320 nM.

Q: `CCC(C)C1OC(=O)C(NC(=O)c2cccc(NC=O)c2O)C(C)OC(=O)C(C(C)CC)OC(=O)C(C)(C)C(O)C(Cc2ccccc2)OC1=O` (stereo not drawn) [compound 3, neoantimycin G] was tested. Which “K-Ras PM mislocalization Emax” value [1] did it give?
A: Its value is 0.62 ± 0.01.

Q: What about the IC50 [1] of the same molecule?
A: Its IC50 is 7.9 ± 0.5 nM.

Q: What about the IC50 (SW620) of the same molecule?
A: The IC50 was 40 nM.

Q: What about the IC50 (SW620 Ad300) of the same molecule?
A: The IC50 was 260 nM.

Q: `CCC(C)[C@@H]1OC(=O)[C@H](C)OC(=O)[C@@H](NC(=O)c2cccc(NC=O)c2O)[C@@H](C)OC(=O)[C@H](CC(C)C)OC(=O)C(C)(C)C(=O)[C@H](CC(C)C)NC1=O` (stereo partly drawn) [compound 7, respirantin, reference compound] was tested. Which “K-Ras PM mislocalization Emax” value [1] did it give?
A: Its value is 0.78 ± 0.02.

Q: What about the IC50 [1] of the same molecule?
A: The IC50 was 0.7 ± 0.1 nM.

Q: And the “increased cytotoxicity toward K-Ras mutated A549 versus non-mutated H522” value (A549 versus H522)?
A: The value was greater than 33 fold.

Q: What about the IC50 (SW620) of the same molecule?
A: Its IC50 is 10 nM.

Q: And the “FR (fold resistance)” value (SW620 Ad300)?
A: The value was 3.0.

Q: What about the IC50 (SW620 Ad300) of the same molecule?
A: Its IC50 is 30 nM.

Q: Which results are given for `CCCC[C@H]1C(=O)O[C@H](C)[C@H](NC(=O)c2cccc(NC=O)c2O)C(=O)O[C@@H](C)[C@@H]1OC(=O)C(C)C` [compound 6, antimycin A4a, reference compound]?
A: K-Ras PM mislocalization Emax [1]: 0.79 ± 0.02; IC50 [1]: 3.7 ± 0.3 nM; IC50 (SW620): 120 nM; FR (fold resistance) (SW620 Ad300): 3.7; IC50 (SW620 Ad300): 440 nM

Q: Which results are given for `CC(C)[C@@H]1OC(=O)[C@@H](NC(=O)c2cccc(NC=O)c2O)[C@H](C)OC(=O)[C@H](C(C)C)OC(=O)C(C)(C)[C@@H](O)[C@@H](Cc2ccccc2)OC1=O` [compound 2, neoantimycin F]?
A: K-Ras PM mislocalization Emax [1]: 0.56 ± 0.01; IC50 [1]: 9.9 ± 0.2 nM; IC50 (SW620): 160 nM; FR (fold resistance) (SW620 Ad300): 3.8; IC50 (SW620 Ad300): 610 nM

Q: How did the “K-Ras PM mislocalization Emax” value [1] turn out when `CC[C@H](C)[C@@H]1OC(=O)C(C)(C)C(=O)[C@@H](Cc2ccccc2)OC(=O)[C@H](C(C)C)OC(=O)[C@@H](NC(=O)c2cccc(NC=O)c2O)[C@@H](C)OC1=O` [compound 4, neoantimycin H] was run?
A: Its value is 0.60 ± 0.02.

Q: And the IC50 [1]?
A: Its IC50 is 6.4 ± 0.5 nM.

Q: What about the IC50 (SW620) of the same molecule?
A: The IC50 was 70 nM.

Q: And the “FR (fold resistance)” value (SW620 Ad300)?
A: Its value is 2.7.

Q: And the IC50 (SW620 Ad300)?
A: The IC50 was 190 nM.

Q: For `CC[C@H](C)[C@@H]1OC(=O)C(C)(C)[C@@H](O)[C@@H](Cc2ccccc2)OC(=O)[C@H](C(C)C)OC(=O)[C@@H](NC(=O)c2cccc(NC=O)c2O)[C@H](C)OC1=O` [compound 1, neoantimycin], which “K-Ras PM mislocalization Emax” value [1] is on record?
A: Its value is 0.60 ± 0.03.

Q: And the IC50 [1]?
A: The IC50 was 2.9 ± 0.7 nM.

Q: And the “increased cytotoxicity toward K-Ras mutated A549 versus non-mutated H522” value (A549 versus H522)?
A: Its value is 50 fold.

Q: And the IC50 (SW620)?
A: The IC50 was 60 nM.

Q: What about the “FR (fold resistance)” value (SW620 Ad300) of the same molecule?
A: Its value is 3.8.

Q: What about the IC50 (SW620 Ad300) of the same molecule?
A: The IC50 was 230 nM.

Q: What does the source list for `COc1cccc2c1C(=O)c1c(O)c3c(c(O)c1C2=O)C[C@@](O)(C(=O)CO)C[C@@H]3O[C@H]1C[C@H](N)[C@H](O)[C@H](C)O1` [doxorubicin]?
A: FR (fold resistance), control study (SW620 Ad300; coadministration with the P-gp inhibitor verapamil): 2.4; FR (fold resistance), control study (SW620 Ad300; doxorubicin alone): 22
